Results: ChEMBL document CHEMBL1148182, “Flavonone and chalcone derivatives from Cryptocarya kurzii” (J Nat Prod, 1993)
Converted amounts (≈) assume the structure as drawn.

Test system: KB
Experiment: Cytotoxicity against human KB cells
Format: functional, cell-based

SMILES | IC50
O=C1CCC[C@@H]2C[C@H](C[C@](O)(/C=C/c3ccccc3)O2)c2c(cc(O)c(C(=O)/C=C/c3ccccc3)c2O)O1 [KURZICHALCOLACTONE] | 15 µg/mL (≈ 28.5 µM)
O=C1CCC[C@@H]2C[C@H](C[C@](O)(/C=C/c3ccccc3)O2)c2c(cc(O)c3c2O[C@H](c2ccccc2)CC3=O)O1 [KURZIFLAVOLACTONE B] | 4 µg/mL (≈ 7.6 µM)
